In publication PMC5515971, “Utility of spherical human liver microtissues for prediction of clinical drug-induced liver injury” (Archives of Toxicology, 2017):
Like-named read-outs stand apart in the source and are kept apart here.

Experiments:
[1] = cited from earlier work
[2] = test system: primary human hepatocytes (PHH); assay: Cytotoxicity (cellular ATP, CellTiter-Glo) in 2D plated primary human hepatocytes, 48 h treatment; format: cell-based; conditions: for IC50: read-out: Geomean IC50;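 for all read-outs here: 384-well plates, luminescence read-out, normalized to vehicle wells with 1% DMSO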
[3] = test system: 3D human liver microtissues (hLiMT); assay: Cytotoxicity (cellular ATP, CellTiter-Glo 2.0) in 3D human liver microtissues, 14 day repeat-dose treatment
[4] = ref Chen et al 2016 / Chen et al 2011; cited from earlier work
[5] = cited from earlier work; remark: listed apart in the source
[6] = human Cmax total, used for IC50/Cmax
[7] = human total plasma Cmax, ref literature values
[8] = Hepatocyte, 2D primary human hepatocytes (lot IZT), 48 h treatment, total cellular ATP content
[9] = Homo sapiens, Hepatocyte, 336 h, read-out: Geomean IC50 [µM]

| SMILES | Cmax [1, 6] [nM] | Cmax [1, 7] [nM] | IC50 [2, 8] [µM] | IC50 [3, 9] [µM] | further results |
| --- | --- | --- | --- | --- | --- |
| C[C@H]1COc2c(N3CCN(C)CC3)c(F)cc3c(=O)c(C(=O)O)cn1c23 [Levofloxacin] | 15800 | 15800 | > 500 | > 320 |  |
| CN1[C@@H]2CC[C@H]1C[C@@H](OC(=O)[C@H](CO)c1ccccc1)C2 [Hyoscyamine (Daturine)] |  |  |  |  | IC50 ([2]; 2D primary human hepatocytes (lot IZT), 48 h treatment, total cellular ATP content): > 10 µM; IC50 ([3]; read-out: Geomean IC50, decrease in total cellular ATP content, hLiMT treated for 14 days, hepatocyte lot IZT (except Dexamethasone) co-cultured with NPCs, n=1 or geometric mean): > 10 µM |
| CCOC(=O)C1=C(C)NC(C)=C(C(=O)OC)C1c1cccc(Cl)c1Cl (centres unmarked) [Felodipine] | 30 | 30 | > 10 | > 10 |  |
| CS(=O)(=O)Nc1ccc([N+](=O)[O-])cc1Oc1ccccc1 [Nimesulide] | 21100 | 21100 | 436 | 60.5 |  |
| CN(C)C(=O)Oc1ccc[n+](C)c1 [Pyridostigmine] | 1100 | 1100 | > 200 | > 100 |  |
| Clc1ccccc1CN1CCc2sccc2C1 [Ticlopidine] | 8100 | 8070 |  |  |  |
| CCN(CC)CC#CCOC(=O)C(O)(c1ccccc1)C1CCCCC1 (centres unmarked) [Oxybutynin] | 22 | 22.4 |  |  |  |
| N[C@@H](Cc1cc(I)c(Oc2ccc(O)c(I)c2)c(I)c1)C(=O)O [Liothyronine] | 2.46 | 2.46 |  | > 10 | IC50 ([2]; Homo sapiens, Hepatocyte, 48 h): > 10 µM |
| CN1C(C(=O)Nc2nccs2)=C(O)c2ccccc2S1(=O)=O [Sudoxicam] | 77000 | 77100 | > 100 | > 100 |  |
| CCCC(CCC)C(=O)O [Valproic acid] | 693000 | 693000 | > 100 | > 100 |  |
| N[C@@H]1[C@H]2CN(c3nc4c(cc3F)c(=O)c(C(=O)O)cn4-c3ccc(F)cc3F)C[C@@H]12 [Trovafloxacin] |  |  | > 125 | > 125 |  |
| O=P1(N(CCCl)CCCl)NCCCO1 (centres unmarked) [Cyclophosphamide] |  |  |  | > 2000 | Cmax ([1]; human, in vivo): 143000 nM; IC50 ([2]; Homo sapiens, Hepatocyte, 48 h): > 2000 µM |
| COC(=O)C1=C(C)NC(C)=C(C(=O)OCCN(C)Cc2ccccc2)C1c1cccc([N+](=O)[O-])c1 (centres unmarked) [Nicardipine] | 80 | 80 |  |  |  |
| CN(C)CCCN1c2ccccc2CCc2ccccc21 [Imipramine] | 540 | 530 |  |  |  |
| C[C@H]1O[C@@H](O[C@H]2[C@@H](O)C[C@H](O[C@H]3[C@@H](O)C[C@H](O[C@H]4CC[C@@]5(C)[C@H](CC[C@@H]6[C@@H]5C[C@@H](O)[C@]5(C)[C@@H](C7=CC(=O)OC7)CC[C@]65O)C4)O[C@@H]3C)O[C@@H]2C)C[C@H](O)[C@@H]1O [Digoxin] |  |  |  | 0.33 | IC50 ([2]; Homo sapiens, Hepatocyte, 48 h): < 0.15 µM; classification at 100 μM IC50 threshold ([2]; PHH 48 h): false positives; classification at 50× MOS threshold ([2]; PHH 48 h): false positive; classification at 100 μM IC50 threshold ([3]; hLiMT 14 days): false positives |
| CNCCCN1c2ccccc2CCc2ccccc21 [Desipramine] | 1880 | 1880 |  |  | FDA DILI Classification DILI severity score [4]: 3; LTKB DILI classification [4]: Ambiguous DILI concern; DILI severity category ([5]; Table 1, ref Garside et al. (2014)): 3: Low clinical DILI concern (N = 23); DILI severity category ([5]; clinical DILI severity category, 1-5): 3. Low Clinical DILI Concern; DILI category ([5]; clinical, from literature and product labels, ref Garside et al. 2014): 3. Low Clinical DILI Concern |
| CCN1C(=O)NC(c2ccccc2)C1=O (centres unmarked) [Ethotion] | 367000 | 367000 | > 1250 | > 150 |  |
| Cc1ccc(N(CC2=NCCN2)c2cccc(O)c2)cc1 [Phentolamine] | 90 | 90 | > 100 | > 100 |  |
| CC/C(=C(\c1ccccc1)c1ccc(OCCN(C)C)cc1)c1ccccc1 [Tamoxifen] | 400 | 400 |  |  |  |
